Data from US4895846A, “Pharmaceutically useful dihydropyridinyldicarboxylate amides and esters incorporating arylpiperazinylalkyl moieties” (Bristol-Myers Company, priority 1987, dated 1990).
Converted amounts (≈) assume the structure as drawn.

Tests used:
[1] = tested on: normotensive and spontaneously hypertensive conscious rats; assay: Oral administration to normotensive and spontaneously hypertensive conscious rats, mean arterial blood pressure; format: in vivo, rat; settings: for maximal mean arterial blood pressure reduction: oral
Method: In vivo testing included vasodilating results in the ganglion-blocked, angiotensin-II supported rat and antihypertensive screening in either the spontaneous hypertensive rat (SHR) or DOCA salt rats. In general, vasodilating activity paralleled calcium blocking activity for members of the instant series. […] A most preferred compound, BMY 20064 [drawing 21] was administered orally to both normotensive and spontaneously hypertensive conscious rats. Doses of 1 and 10 mg/kg elicited maximal mean arterial blood pressure reductions of 25 and 53 mmHg, respectively, in the normotensive rat group and 34 and 100 mmHg, respectively, in the spontaneously hypertensive rat group.

[2] = tested on: blood platelets in platelet rich plasma; assay: Collagen aggregation of blood platelets in platelet rich plasma; format: cell-based; settings: Oryctolagus cuniculus; platelet rich plasma (rabbit)

| SMILES | onset of mean arterial blood pressure response ([1]; both groups (normotensive and SHR), oral 1 and 10 mg/kg) | persistence of mean arterial blood pressure response ([1]; both groups, after the higher dose (10 mg/kg oral)) | maximal mean arterial blood pressure reduction ([1]; normotensive conscious rats, 1 mg/kg) | maximal mean arterial blood pressure reduction ([1]; normotensive conscious rats, 10 mg/kg) | maximal mean arterial blood pressure reduction ([1]; spontaneously hypertensive conscious rats, 1 mg/kg) | maximal mean arterial blood pressure reduction ([1]; spontaneously hypertensive conscious rats, 10 mg/kg) | EC50 [2] |
| --- | --- | --- | --- | --- | --- | --- | --- |
| COC(=O)C1=C(C)NC(C)=C(C(=O)OCCCN2CCN(c3ccccc3OC)CC2)C1c1cccc([N+](=O)[O-])c1 (stereo not drawn) [BMY 20064] | < 10 min | > 4 h | 25 mmHg | 53 mmHg | 34 mmHg | 100 mmHg | 11 µg/mL (≈ 19.5 µM) |
| COC(=O)C1=C(C)NC(C)=C(C(=O)OC)C1c1ccccc1[N+](=O)[O-] [Nifedipine, 4-(2'-nitrophenyl)-2,6-dimethyl-3,5-dicarbomethoxy-1,4-dihydropyridine] | – | – | – | – | – | – | 176 µg/mL (≈ 508 µM) |
| COc1ccc(CCN(C)CCCC(C#N)(c2ccc(OC)c(OC)c2)C(C)C)cc1OC (stereo not drawn) [Verapamil] | – | – | – | – | – | – | 151 µg/mL (≈ 332 µM) |
